The text below walks through data of PubChem BioAssay (NCI).

Each structure is given as a SMILES string.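 Results reflect a 48-hour exposure of cells in 96-well plates to compound at five concentrations. At the TGI there is no net growth.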

Usually TGI stands for the concentration giving total growth inhibition.

The first test has as its system HL-60(TB) leukemia. Kind of test: DTP human tumour cell line panel, 48 h.
As for `CC(=O)CCCCC(=O)Nc1ccc(CC(NC(=O)OC(C)(C)C)C(=O)NCC(=O)OCc2ccccc2)cc1` (stereo not given), the TGI came to 43.6 µM.

Another test concerns K-562 leukemia. Kind of test: DTP human tumour cell line panel, 48 h.
Compound `CC(=O)OCOC(=O)CN(CC(=O)OCOC(C)=O)Cc1cc2c(cc1OC(C)=O)Oc1cc(OC(C)=O)c(CN(CC(=O)OCOC(C)=O)CC(=O)OCOC(C)=O)cc1C21OC(=O)c2ccccc21` registered a total growth inhibition concentration (TGI) of 0.401 µM.

In the case of `NC(=O)c1cc2cc(Cl)cc(Cl)c2oc1=Nc1ccc(F)cc1`, the concentration for total growth inhibition (TGI) stood at 27.5 µM.

Compound `COc1ccc2nc(-n3c(/C=C/c4ccccc4O)nc4ccccc4c3=O)sc2c1` displayed a TGI of 59.6 µM.

In the case of `O=CC(=C(I)I)c1ccccc1`, the TGI is 1.34 µM.

The compound `O=C1C=C2C(=NC34CCCCC3C(c3ccccc3)C3=C(c5ccccc5CC3)N24)c2ccccc21` (stereo not given) showed a total growth inhibition concentration (TGI) of more than 10 µM.

In the case of `O=[N+]([O-])C(C(Cl)=C(Cl)Cl)=C(N(Cc1ccccc1)Cc1ccccc1)N(Cc1ccccc1)Cc1ccccc1`, the TGI is more than 100 µM.

`CCCC1(NC(=O)C(F)(F)F)CC(OC)OC2COC(c3ccccc3)OC21` (stereo not given) registered a TGI of more than 100 µM.

In the case of `CCC1NC(=O)C1NC(=O)OC` (stereo not given), the TGI is more than 100 µM.

`O=c1c2nn3c(=O)n(-c4ccccc4)c(=O)c3nn2c(=O)n1-c1ccccc1`: the TGI is more than 100 µM.

In the case of `COC(=O)C1=CC2CCCC1(O)C(C(C)=O)C2` (stereo not given), the TGI was more than 100 µM.

For the compound `CC(=O)CCCCC(=O)Nc1ccc(CC(NC(=O)OC(C)(C)C)C(=O)NCC(=O)OCc2ccccc2)cc1` (stereo not given), the TGI is 47.6 µM.

A further test deals with SK-MEL-28 melanoma. Kind of test: DTP human tumour cell line panel, 48 h.
Compound `CC(=O)OCOC(=O)CN(CC(=O)OCOC(C)=O)Cc1cc2c(cc1OC(C)=O)Oc1cc(OC(C)=O)c(CN(CC(=O)OCOC(C)=O)CC(=O)OCOC(C)=O)cc1C21OC(=O)c2ccccc21` yielded a total growth inhibition concentration (TGI) of 1.76 µM.

Take `NC(=O)c1cc2cc(Cl)cc(Cl)c2oc1=Nc1ccc(F)cc1`: the TGI was found to be 46.3 µM.

`COc1ccc2nc(-n3c(/C=C/c4ccccc4O)nc4ccccc4c3=O)sc2c1` registered a TGI of more than 100 µM.

Consider `O=CC(=C(I)I)c1ccccc1`, for which the TGI was 7.36 µM.

In turn, `O=C1C=C2C(=NC34CCCCC3C(c3ccccc3)C3=C(c5ccccc5CC3)N24)c2ccccc21` (stereo not given) gave a TGI of more than 10 µM.

Turning to `O=[N+]([O-])C(C(Cl)=C(Cl)Cl)=C(N(Cc1ccccc1)Cc1ccccc1)N(Cc1ccccc1)Cc1ccccc1`, the TGI was more than 100 µM.

As for `CCCC1(NC(=O)C(F)(F)F)CC(OC)OC2COC(c3ccccc3)OC21` (stereo not given), the concentration for total growth inhibition (TGI) was more than 100 µM.

`CCC1NC(=O)C1NC(=O)OC` (stereo not given) had a total growth inhibition concentration (TGI) of more than 100 µM.

In turn, `O=c1c2nn3c(=O)n(-c4ccccc4)c(=O)c3nn2c(=O)n1-c1ccccc1` registered a total growth inhibition concentration (TGI) of more than 100 µM.

`COC(=O)C1=CC2CCCC1(O)C(C(C)=O)C2` (stereo not given) returned a TGI of more than 100 µM.

Compound `CC(=O)CCCCC(=O)Nc1ccc(CC(NC(=O)OC(C)(C)C)C(=O)NCC(=O)OCc2ccccc2)cc1` (stereo not given) returned a TGI of 35.4 µM.

Another test has as its system DU-145 prostate. Kind of test: DTP human tumour cell line panel, 48 h.
Turning to `CC(=O)OCOC(=O)CN(CC(=O)OCOC(C)=O)Cc1cc2c(cc1OC(C)=O)Oc1cc(OC(C)=O)c(CN(CC(=O)OCOC(C)=O)CC(=O)OCOC(C)=O)cc1C21OC(=O)c2ccccc21`, the TGI turned out to be 6.35 µM.

For the compound `NC(=O)c1cc2cc(Cl)cc(Cl)c2oc1=Nc1ccc(F)cc1`, the TGI stood at 41.8 µM.

`COc1ccc2nc(-n3c(/C=C/c4ccccc4O)nc4ccccc4c3=O)sc2c1` yielded a concentration for total growth inhibition (TGI) of more than 100 µM.

Compound `O=CC(=C(I)I)c1ccccc1` displayed a TGI of 19.5 µM.

In turn, `O=C1C=C2C(=NC34CCCCC3C(c3ccccc3)C3=C(c5ccccc5CC3)N24)c2ccccc21` (stereo not given) had a TGI of more than 10 µM.

As for `O=[N+]([O-])C(C(Cl)=C(Cl)Cl)=C(N(Cc1ccccc1)Cc1ccccc1)N(Cc1ccccc1)Cc1ccccc1`, the TGI is more than 100 µM.

In turn, `CCCC1(NC(=O)C(F)(F)F)CC(OC)OC2COC(c3ccccc3)OC21` (stereo not given) returned a TGI of more than 100 µM.

Compound `CCC1NC(=O)C1NC(=O)OC` (stereo not given) had a concentration for total growth inhibition (TGI) of more than 100 µM.

In the case of `O=c1c2nn3c(=O)n(-c4ccccc4)c(=O)c3nn2c(=O)n1-c1ccccc1`, the total growth inhibition concentration (TGI) was more than 100 µM.

`COC(=O)C1=CC2CCCC1(O)C(C(C)=O)C2` (stereo not given) had a total growth inhibition concentration (TGI) of more than 100 µM.

On to `CC(=O)CCCCC(=O)Nc1ccc(CC(NC(=O)OC(C)(C)C)C(=O)NCC(=O)OCc2ccccc2)cc1` (stereo not given), for which the total growth inhibition concentration (TGI) turned out to be 88.5 µM.

A further test has as its system MDA-MB-231 breast. Kind of test: DTP human tumour cell line panel, 48 h.
For `CC(=O)OCOC(=O)CN(CC(=O)OCOC(C)=O)Cc1cc2c(cc1OC(C)=O)Oc1cc(OC(C)=O)c(CN(CC(=O)OCOC(C)=O)CC(=O)OCOC(C)=O)cc1C21OC(=O)c2ccccc21`, the concentration for total growth inhibition (TGI) was found to be 3.64 µM.

In turn, `NC(=O)c1cc2cc(Cl)cc(Cl)c2oc1=Nc1ccc(F)cc1` displayed a total growth inhibition concentration (TGI) of 35.6 µM.

As for `COc1ccc2nc(-n3c(/C=C/c4ccccc4O)nc4ccccc4c3=O)sc2c1`, the TGI was more than 100 µM.

In turn, `O=CC(=C(I)I)c1ccccc1` displayed a TGI of 5.57 µM.

For the compound `O=C1C=C2C(=NC34CCCCC3C(c3ccccc3)C3=C(c5ccccc5CC3)N24)c2ccccc21` (stereo not given), the TGI was more than 10 µM.

`O=[N+]([O-])C(C(Cl)=C(Cl)Cl)=C(N(Cc1ccccc1)Cc1ccccc1)N(Cc1ccccc1)Cc1ccccc1`: the TGI is more than 100 µM.

Consider `CCCC1(NC(=O)C(F)(F)F)CC(OC)OC2COC(c3ccccc3)OC21` (stereo not given), for which the total growth inhibition concentration (TGI) was more than 100 µM.

`CCC1NC(=O)C1NC(=O)OC` (stereo not given): the TGI was more than 100 µM.

As for `O=c1c2nn3c(=O)n(-c4ccccc4)c(=O)c3nn2c(=O)n1-c1ccccc1`, the total growth inhibition concentration (TGI) was more than 100 µM.

With `COC(=O)C1=CC2CCCC1(O)C(C(C)=O)C2` (stereo not given), the total growth inhibition concentration (TGI) is more than 100 µM.

Turning to `CC(=O)CCCCC(=O)Nc1ccc(CC(NC(=O)OC(C)(C)C)C(=O)NCC(=O)OCc2ccccc2)cc1` (stereo not given), the total growth inhibition concentration (TGI) was 48.3 µM.

Another test relates to MDA-N. Kind of test: DTP human tumour cell line panel, 48 h.
`CC(=O)OCOC(=O)CN(CC(=O)OCOC(C)=O)Cc1cc2c(cc1OC(C)=O)Oc1cc(OC(C)=O)c(CN(CC(=O)OCOC(C)=O)CC(=O)OCOC(C)=O)cc1C21OC(=O)c2ccccc21` yielded a TGI of 1.32 µM.

`NC(=O)c1cc2cc(Cl)cc(Cl)c2oc1=Nc1ccc(F)cc1` had a TGI of 66.5 µM.

Compound `COc1ccc2nc(-n3c(/C=C/c4ccccc4O)nc4ccccc4c3=O)sc2c1` registered a TGI of 36.5 µM.

`O=CC(=C(I)I)c1ccccc1` displayed a TGI of 4.81 µM.

`O=C1C=C2C(=NC34CCCCC3C(c3ccccc3)C3=C(c5ccccc5CC3)N24)c2ccccc21` (stereo not given) displayed a TGI of more than 10 µM.

`O=[N+]([O-])C(C(Cl)=C(Cl)Cl)=C(N(Cc1ccccc1)Cc1ccccc1)N(Cc1ccccc1)Cc1ccccc1` returned a concentration for total growth inhibition (TGI) of more than 100 µM.

As for `CCCC1(NC(=O)C(F)(F)F)CC(OC)OC2COC(c3ccccc3)OC21` (stereo not given), the TGI was more than 100 µM.

In the case of `CCC1NC(=O)C1NC(=O)OC` (stereo not given), the TGI is more than 100 µM.

For the compound `O=c1c2nn3c(=O)n(-c4ccccc4)c(=O)c3nn2c(=O)n1-c1ccccc1`, the concentration for total growth inhibition (TGI) was more than 100 µM.

`COC(=O)C1=CC2CCCC1(O)C(C(C)=O)C2` (stereo not given): the TGI is more than 100 µM.
